Data set [1] in a line: Solubility studies (turbidity or clarity of the resultant solution). Format: physicochemical. As to conditions: duloxetine present along with one or more cyclodextrin or derivatives, as physical admixture or complex. As to the method: Weighed amount of duloxetine hydrochloride was dispersed in required quantity of water at room temperature. To the above dispersion sodium bicarbonate, propylene glycol, sodium lauryl sulphate or Hydroxypropyl Beta-cyclodextrin was added in requisite amount as specified in Table 5.

The conditions of data set [2]: water; cited from earlier work.
The conditions of data set [3]: acidic environment of gastrointestinal tract; cited from earlier work.

As to `CNCC[C@H](Oc1cccc2ccccc12)c1cccs1` [Duloxetine], in data set [1], the “Solubility of duloxetine in presence of cyclodextrin” value was “significant increase in solubility”. Also, the Aqueous solubility entry in data set [2] was “slightly soluble in water”. Also, the Acid stability result in data set [3] is reported as “acid labile”.

The record behind these values is patent US8758779B2, “Pharmaceutical composition of duloxetine” (Wockhardt Ltd., priority 2009, dated 2014).
